The values that follow come from patent EP1104674A1, “O,o'-dihydroxy azo dyes as medicinal components with TPO-agonistic or -synergetic activity” (Curacyte AG, priority 1999, dated 2001).

The experiment deals with T1, humanen mpl-Rezeptor (Homo sapiens, UniProt P40238).
T1 sequence (P40238 26-635): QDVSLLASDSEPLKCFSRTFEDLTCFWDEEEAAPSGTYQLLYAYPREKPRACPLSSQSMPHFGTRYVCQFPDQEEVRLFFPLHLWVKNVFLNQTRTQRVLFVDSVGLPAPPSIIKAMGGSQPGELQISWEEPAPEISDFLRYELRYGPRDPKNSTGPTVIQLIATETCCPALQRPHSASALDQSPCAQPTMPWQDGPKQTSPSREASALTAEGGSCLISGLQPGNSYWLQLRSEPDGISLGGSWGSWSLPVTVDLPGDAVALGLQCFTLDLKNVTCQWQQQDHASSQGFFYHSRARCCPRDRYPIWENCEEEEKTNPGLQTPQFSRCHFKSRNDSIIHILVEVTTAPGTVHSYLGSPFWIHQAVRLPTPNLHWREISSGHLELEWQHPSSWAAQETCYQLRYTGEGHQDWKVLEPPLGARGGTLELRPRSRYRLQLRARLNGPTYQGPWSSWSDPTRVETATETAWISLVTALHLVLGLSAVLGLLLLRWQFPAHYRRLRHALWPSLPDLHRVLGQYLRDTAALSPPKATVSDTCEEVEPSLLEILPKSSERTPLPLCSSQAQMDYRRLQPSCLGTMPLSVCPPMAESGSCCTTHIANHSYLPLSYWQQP
The experiment can be described thus: TPO-dependent cell proliferation test with BaF3 cells transfected with the human mpl receptor (BaF3/mpl), WST readout. To be noted: BaF3-mpl Rezeptor Proliferationstest; 48 bis 72 h; half-maximal stimulation after background subtraction. The experiment is classed as cell-based. An excerpt:
Die Bioaktivität der erfindungsgemäßen Verbindungen kann mittels eines TPO-abhängigen Zellproliferationstests gemessen werden. Die Substanzen dürfen keine Wirkung auf die nicht transfektierten parenteralen BaF3 Zellen ausüben. Murine IL-3-abhängig wachsende BaF3 Zellen wurden mit dem humanen mpl-Rezeptor transfektiert. In Abwesenheit von IL-3 ist die Proliferation und das Überleben dieser Zellen abhängig von TPO. Die parentale, untransfektierte Zell-Linie reagiert nicht auf humanes TPO, proliferiert aber in Gegenwart von IL-3. Die Bestimmung der Zellproliferation erfolgt nach literaturbekannten Verfahren (WO 96/40750). Die chemischen Substanz-Bibliotheken wurden in Bioassays mit den beiden obigen Zell-Linien gescreent. Die Zellen wurden in Gegenwart von IL-3 (BaF3 parental) bzw. TPO (BaF3-mpl-Rezeptor tragend = BaF3/mpl) in RPMI 1640 Medium in Gegenwart von 10 % FCS (fetales Kälberserum) gezüchtet. Für den Test wurden die Zellen zweimal in IL-3 bzw. TPO freiem Medium gewaschen und im Medium, das kein TPO bzw. IL-3 enthielt, resuspendiert. Diese Zellsuspension wurde dann zur Vertiefung einer 96 Tüpfelplatte (Costar), die TPO oder IL-3 und/oder Verbindung enthielt, in einer Menge von 10^4 Zellen/Vertiefung zugegeben. Die Zellen wurden dann für 48 bis 72 h bei 37°C in einem CO2 Inkubator inkubiert. Die proliferative Aktivität wurde bestimmt durch die Zugabe von WST (WST: Zell-Proliferations-Reagens; BM-Katalog-Nr. 1644807 "Tetrazolium-Salz").WST wird von proliferierenden Zellen zu Formazan umgewandelt und diese Umwandlung, als Maß für die Proliferation wird mittels OD (OD: optical density) bei 570 nm in einem ELISA Platten Meßgerät bestimmt.
Zur Ermittlung der halbmaximalen Stimulation wurde vom maximal erzielten Signal der Background (Zellen ohne Substanz) abgezogen und dieser Wert durch 2 geteilt. Dieser Wert plus dem Background-Wert wurden dann zur Bestimmung der EC50 (halbmaximale excitatorv concentration; Substratkonzentration, bei der die Substanz ihre halbmaximale Wirksamkeit im BaF3-mpl Rezeptor Proliferationstest ausübt) herangezogen. In Tabelle 3 sind die EC50-Werte bespielhaft für drei untersuchte Verbindungen dargestellt.
Die untersuchten Verbindungen stimulieren die Proliferation von mit mpl-Rezepror transfektierten BaF3 Zellen in einer Dosis abhängigen Weise. Die Proliferation von parenteralen Zell-Linien wird nicht stimuliert. Auch in Abwesenheit von TPO stimulieren die Verbindungen die Proliferation der BaF3/mpl-Zellen in wochenlanger Kultur. Tabelle 3
Turning to `O=[N+]([O-])c1ccc2c(N=Nc3ccc4ccccc4c3O)c(O)cc(S(=O)(=O)O)c2c1` [Beispiel 9], the EC50 (commonly the concentration giving half of the maximal effect) was 1.37 µM.
Regarding `O=[N+]([O-])c1ccc2c(N=Nc3c(O)ccc4ccccc34)c(O)cc(S(=O)(=O)O)c2c1` [Beispiel 12], the 50% effective concentration (EC50) was 1.59 µM. This EC50 and that of the compound before are within 1.5-fold of each other.
The compound `Cc1ccc(O)c(N=Nc2c(O)cc(S(=O)(=O)O)c3ccccc23)c1` [Beispiel 13] showed a 50% effective concentration (EC50) of 5.58 µM.
In turn, `Cc1ccc(NC(=O)c2cc3ccccc3c(N=Nc3cc(S(=O)(=O)O)ccc3O)c2O)c(C)c1` [Beispiel 15] had a concentration giving a half-maximal response (EC50) of 4.48 µM.
The result for `O=S(=O)(O)c1cccc2c(O)c(N=Nc3ccc(C(F)(F)F)cc3O)ccc12` [Beispiel 20, 5-Hydroxy-6-(2-hydroxy-4-trifluormethyl-phenylazo)naphthalin-1-sulfonsäure] reads 0.0728 µM.
